Patent publication US20040077888A1, “Polyamine-mediated transfection” (The Regents of the University of California, priority 2002, published 2004)

Columns and labels:
[1] = tested on: pCMV.FOX.Luc-2; assay: Ethidium bromide displacement assay (DNA condensation); type: binding; details: polyamine:cholesterol liposomes, FIGS. 1A-C
Procedure: The assay set forth in FIGS. 1A-C is based on a decrease in fluorescence that occurs when ethidium bromide is displaced from DNA by adding cationic liposomes. The lipoplexes were formed by adding a DNA-ethidium bromide solution to a solution containing variable amounts of polyamine:cholesterol liposomes. The lipoplexes were then treated with an equal volume of either water or a TRIS buffered solution at various pHs. The resulting fluorescence was then measured to determine the relative concentration of intercalated ethidium bromide.
Ethidium Bromide Displacement Assay. Ethidium bromide (153 μL of a 0.01% solution) was added to 96 μg of pCMV.FOX.Luc-2. This DNA-ethidium bromide solution was diluted to a final volume of 6 mL. Different concentrations of the polyamine liposomes were added to each well of a 96 well microplate, to which 50 μL of the DNA-ethidium bromide solution was added to obtain a final volume of 100 μL. After 5 min. the lipoplexes were treated with 100 μL of water or buffer and gently shaken. The resulting fluorescence at 250 nm excitation and 610 nm emission was measured using a SpectraMax XS microplate fluorometer (Molecular Devices, Oregon).

[2] = tested on: CHO cells; assay: Transfection of CHO cells, luciferase assay; type: cell-based; details: for luciferase expression: FIG. 3, vs dimyristoyl analogs with the same DNA-binding domain; for transfection activity compared with LipofectAMINE PLUS and TransFast: two cell lines (CHO, NIH-3T3), luciferase and GFP vector
Procedure: (§1) Cell Culture. CHO cells (ATCC, Rockville, Md.) were cultured in 75 cm^2 cell culture flasks with HAMS F12 media containing 10% bovine calf serum. NIH 3T3 cells were grown in Dulbecco's modified Eagle's medium with 10% fetal calf serum. The cells were maintained at 37° C. in a 5% CO2 environment. Twenty-four hours prior to transfection, cells were split into 24 well plates at 60% confluence.
(§2) Transfection of CHO and NIH 3T3 Cells. Liposomal suspensions of the polyamines were diluted with Dulbecco's modified essential media (serum free) to obtain the desired concentration. The suspensions were vortex mixed followed by addition of an appropriate quantity of DNA to yield lipoplex preparations at the desired N/P ratio. […] Immediately prior to transfection, the cells were prepared by aspiration of the growth media. The lipoplex preparation was added to the cells (200 μL, 1 μg DNA/well). After incubation for 2 hours, the lipoplex solution was aspirated and replaced with growth media (500 μL),
(§3) Luciferase Assay. Cells were lysed 24 hours after lipoplex administration by adding 200 μL lysis buffer. Luciferase activity was assayed using the Enhanced Luciferase Assay Kit and a Moonlight 2010 luminometer (Pharmingen, San Diego, Calif.). Luciferase activity was measured as Relative Light Units (RLUs) from an aliquot of the cell lysate over a 10 sec. period. A luciferase standard curve was produced using serial dilutions of purified firefly luciferase (Pharmingen, San Diego, Calif.). Using the standard curve, relative light units are converted to μg of luciferase per μL of sample assayed, and expressed as μg luciferase per 60,000 cells. To ensure luminometer consistency, the instrument is calibrated with a luminometer light standard containing ^14C-toluene (Pharmingen, San Diego, Calif.).

[3] = tested on: NIH 3T3 cells; assay: Transfection of NIH 3T3 cells, luciferase assay; type: cell-based; details: for luciferase expression: FIG. 4, vs dimyristoyl analogs with the same DNA-binding domain
Procedure: as §1, §2, §3

[4] = tested on: CHO cells; assay: GFP-annexin V flow cytometric assay in CHO cells; type: cell-based; details: for GFP expression: FIG. 5, polyamines vs dimyristoyl analogs with the same DNA-binding domain
Procedure: Cell Culture. CHO cells (ATCC, Rockville, Md.) were cultured in 75 cm^2 cell culture flasks with HAMS F12 media containing 10% bovine calf serum. […] The cells were maintained at 37° C. in a 5% CO2 environment. Twenty-four hours prior to transfection, cells were split into 24 well plates at 60% confluence.
Flow Cytometry. Cells transfected with the plasmid vector pNDeGFP were trypsinized 24 h after transfection and resuspended in Dulbecco's phosphate buffered saline (DPBS). The resuspended cells were incubated 30 min. in a solution (1:40 dilution of commercial stock) containing annexin V conjugated to biotin (CalTag, Burlingame, Calif.). After a second DPBS wash, the cells were resuspended 30 min. in a solution (1:400 dilution of commercial stock) of the Tri-color fluorophore conjugated to streptavidin (CalTag, Burlingame, Calif.). After a final DPBS wash, the cells were resuspended in 500 μL DPBS. The cells were then analyzed using a dual channel FACScan (Becton Dickinson, San Jose, Calif.) with a 15 mW, 488 nm argon laser.
Using standard techniques, FACScan gating was set with control cells that were prepared simultaneously with the transfected cells. […] GFP fluorescence was measured with a 530/30 band pass filter on channel FL1. The Tri-color fluorescence was measured with a 675 nm band pass filter on channel FL2. Transfection and mean expression were determined using the FL1 autofluorescence signal from control cells, compared to the transfected cell population.
To further determine the influence of the chemical linker on cytotoxicity, flow cytometry was used to measure cell viability. Using a GFP-annexin V flow cytometric assay, cytotoxicity was simultaneously evaluated in transfected and total cell populations.

[5] = tested on: NIH 3T3 cells; assay: GFP-annexin V flow cytometric assay in NIH 3T3 cells; type: cell-based; details: FIG. 6, polyamines vs dimyristoyl analogs with the same DNA-binding domain
Procedure: as §1, §2
Flow Cytometry. […] The cells were then analyzed using a dual channel FACScan (Becton Dickinson, San Jose, Calif.) with a 15 mW, 488 nm argon laser.
Using standard techniques, FACScan gating was set with control cells that were prepared simultaneously with the transfected cells. […] GFP fluorescence was measured with a 530/30 band pass filter on channel FL1. The Tri-color fluorescence was measured with a 675 nm band pass filter on […]. Transfection and mean expression were determined using the FL1 autofluorescence signal from control cells, compared to the transfected cell population.
Actinomycin-D (Sigma, St. Louis, Mo.) was used to treat non-transfected cells 24 hours prior to the assay to induce apoptosis. […] Non-treated cells were analyzed to establish baseline cytotoxicity and background auto-fluorescence. Each condition was transfected in triplicate and ten thousand cells were counted and simultaneously analyzed for GFP (transfection and expression) and Tri-color (annexin V) fluorescence. […]

| Structure (SMILES) | DNA condensation [1] | transfection activity among the polyamines ([2]; CHO cells) | luciferase expression ([2]; CHO cells) | transfection activity compared with LipofectAMINE PLUS and TransFast [2] | luciferase expression [3] | GFP expression [4] | population of cells expressing GFP (GFP positive, Annexin V negative) ([4]; FIG. 5 black bars) | GFP expression [5] | transfection activity among the polyamines [3] |
| --- | --- | --- | --- | --- | --- | --- | --- | --- | --- |
| CCCCCCCC/C=C\CCCCCCCC(=O)OCC(COC(=O)CCCCCCC/C=C\CCCCCCCC)(COC(=O)CCNCCCN(C)C)COC(=O)CCNCCCN(C)C [polyamine 9] | condensed DNA with efficiency | most active analog | higher levels | roughly comparable to LipofectAMINE PLUS and TransFast | higher levels | higher levels | largest population of cells expressing GFP with extremely low cytotoxicity | higher levels | – |
| CCCCCCCCCCCCCC(=O)OCC(COC(=O)CCCCCCCCCCCCC)(COC(=O)CCNCCN(C)C)COC(=O)CCNCCN(C)C [polyamine 5] | – | – | – | – | – | – | – | – | superior to the other polyamines |
| CCCCCCCC/C=C\CCCCCCCC(=O)OCC(COC(=O)CCCCCCC/C=C\CCCCCCCC)(COC(=O)CCNCCN(C)C)COC(=O)CCNCCN(C)C [polyamine 8] | condensed DNA with efficiency | – | higher levels | roughly comparable to LipofectAMINE PLUS and TransFast | higher levels | higher levels | – | higher levels | superior to the other polyamines |
| CCCCCCCC/C=C\CCCCCCCC(=O)OCC(COC(=O)CCCCCCC/C=C\CCCCCCCC)(COC(=O)CCNCCCCN(C)C)COC(=O)CCNCCCCN(C)C [polyamine 10] | condensed DNA with efficiency | – | higher levels | – | higher levels | higher levels | – | higher levels | – |
